Target: human MRGPRD (Homo sapiens, UniProt Q8TDS7)
Test: MRGPRD antagonist activity, IP-One HTRF assay in CHO cells stably expressing human MRGPRD (versus 100 μM β-Alanine agonist)
Assay type: cell-based
Procedure, shortened: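 CHO cells stably expressing human MRGPRD, plated overnight at 37 °C, were treated with antagonist plus agonist in Tris-HCl/NaCl/LiCl buffer pH 8, incubated 1 h at 37 °C then 1 h at room temperature. IP-1 accumulation read by HTRF; IC50 and percent antagonism of maximum efficacy averaged, SEM reported.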

human MRGPRD, sequence (Q8TDS7 whole entry): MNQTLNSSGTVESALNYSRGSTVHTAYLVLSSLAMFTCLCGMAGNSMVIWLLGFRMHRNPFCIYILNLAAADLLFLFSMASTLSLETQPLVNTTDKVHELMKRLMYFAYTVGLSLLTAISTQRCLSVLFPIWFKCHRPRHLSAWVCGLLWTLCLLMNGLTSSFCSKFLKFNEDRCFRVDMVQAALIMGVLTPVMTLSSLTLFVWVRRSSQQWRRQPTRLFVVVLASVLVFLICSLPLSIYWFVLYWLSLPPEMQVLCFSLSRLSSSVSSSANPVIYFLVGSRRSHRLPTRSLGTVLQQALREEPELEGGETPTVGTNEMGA

Compound | IC50 [µM]
O=C(Nc1ccnc(C(F)F)c1)c1nnn(-c2ccc(-c3ccccc3)cc2)c1C1CC1 [Compound 14-22] | 0.5 to 1
COc1cc(NC(=O)c2nnn(-c3ccc(-c4ccccc4)cc3)c2C2CC2)cc(C)n1 [Compound 14-23] | 0.5 to 1
O=C(Nc1cccc(-n2cncn2)c1)c1nnn(-c2ccc(-c3ccccc3)cc2)c1C1CC1 [Compound 14-24] | 0.5 to 1
Cc1n[nH]c2ncnc(NC(=O)c3nnn(-c4ccc(-c5ccccc5)cc4)c3C3CC3)c12 [Compound 14-25] | 0.5 to 1
N#Cc1cc(NC(=O)c2nnn(-c3ccc(-c4ccccc4)cc3)c2C2CC2)ccn1 [Compound 14-26] | 0.5 to 1
CCn1cc(C(C)NC(=O)c2nnn(-c3ccc(-c4ccccc4)cc3)c2C2CC2)cn1 (stereo not shown) [Compound 14-27] | 0.5 to 1
C[C@H](NC(=O)c1nnn(-c2ccc(-c3ccccc3)cc2)c1C1CC1)c1ccc(Cl)cc1 [Compound 14-28] | 1 to 3
O=C(Nc1ccnc2[nH]ncc12)c1nnn(-c2ccc(-c3ccccc3)cc2)c1C1CC1 [Compound 14-29] | 1 to 3
O=C(NC1CCSCC1)c1nnn(-c2ccc(-c3ccccc3)cc2)c1C1CC1 [Compound 14-30] | 1 to 3
CCn1cc(CNC(=O)c2nnn(-c3ccc(-c4ccccc4)cc3)c2C2CC2)cn1 [Compound 14-31] | 1 to 3
CC(C)n1cc(CNC(=O)c2nnn(-c3ccc(-c4ccccc4)cc3)c2C2CC2)cn1 [Compound 14-32] | 1 to 3
CC(NC(=O)c1nnn(-c2ccc(-c3ccccc3)cc2)c1C1CC1)c1ccn(C)n1 (stereo not shown) [Compound 14-33] | 1 to 3
Cn1cc(CNC(=O)c2nnn(-c3ccc(-c4ccccc4)cc3)c2C2CC2)cn1 [Compound 14-34] | 1 to 3
O=C(NCc1cn[nH]c1)c1nnn(-c2ccc(-c3ccccc3)cc2)c1C1CC1 [Compound 14-36] | 1 to 3
CC[C@H](NC(=O)c1nnn(-c2ccc(-c3ccccc3)cc2)c1C1CC1)c1ccccc1 [Compound 14-37] | 1 to 3
Cn1ncc2c1CCCC2NC(=O)c1nnn(-c2ccc(-c3ccccc3)cc2)c1C1CC1 (stereo not shown) [Compound 14-38] | 1 to 3
Cc1c2c(NC(=O)c3nnn(-c4ccc(-c5ccccc5)cc4)c3C3CC3)nccc2nn1C [Compound 14-39] | 1 to 3
CO[C@H]1CC[C@H](NC(=O)c2nnn(-c3ccc(-c4ccccc4)cc3)c2C2CC2)CC1 [Compound 14-40] | 1 to 3
O=C(NCc1c[nH]cn1)c1nnn(-c2ccc(-c3ccccc3)cc2)c1C1CC1 [Compound 14-41] | 1 to 3
O=C(NCCc1c[nH]cn1)c1nnn(-c2ccc(-c3ccccc3)cc2)c1C1CC1 [Compound 14-42] | 1 to 3
CC(NC(=O)c1nnn(-c2ccc(-c3ccccc3)cc2)c1C1CC1)c1cnn(C(C)(C)C)c1 (stereo not shown) [Compound 14-43] | 1 to 3
CC1(C)COCCC1NC(=O)c1nnn(-c2ccc(-c3ccccc3)cc2)c1C1CC1 (stereo not shown) [Compound 14-44] | 1 to 3
CCn1cc(NC(=O)c2nnn(-c3ccc(-c4ccccc4)cc3)c2C2CC2)cn1 [Compound 14-45] | 1 to 3
O=C(NC1(c2cccnc2)CC1)c1nnn(-c2ccc(-c3ccccc3)cc2)c1C1CC1 [Compound 14-46] | 1 to 3
CC(NC(=O)c1nnn(-c2ccc(-c3ccccc3)cc2)c1C1CC1)c1ccc(S(C)(=O)=O)cc1 (stereo not shown) [Compound 14-47] | 1 to 3

Compound | IC50 [µM]
O=C(Nc1ccnc(N2CCOCC2)c1)c1nnn(-c2ccc(-c3ccccc3)cc2)c1C1CC1 [Compound 14-48] | 1 to 3
CC(NC(=O)c1nnn(-c2ccc(-c3ccccc3)cc2)c1C1CC1)c1cccnc1 (stereo not shown) [Compound 14-49] | 1 to 3
COc1cc(NC(=O)c2nnn(-c3ccc(-c4ccccc4)cc3)c2C2CC2)ccn1 [Compound 14-50] | 1 to 3
Cc1nn(C)c2ccnc(NC(=O)c3nnn(-c4ccc(-c5ccccc5)cc4)c3C3CC3)c12 [Compound 14-51] | 1 to 3
O=C(Nc1ccnc(C(F)(F)F)c1)c1nnn(-c2ccc(-c3ccccc3)cc2)c1C1CC1 [Compound 14-52] | 1 to 3
O=C(Nc1ncnc2[nH]ncc12)c1nnn(-c2ccc(-c3ccccc3)cc2)c1C1CC1 [Compound 14-53] | 1 to 3
O=C(Nc1c(F)cccc1F)c1nnn(-c2ccc(-c3ccccc3)cc2)c1C1CC1 [Compound 14-54] | 1 to 3
Cc1cc(CNC(=O)c2nnn(-c3ccc(-c4ccccc4)cc3)c2C2CC2)nn1C [Compound 14-55] | 1 to 3
O=C(NC1CC(F)(F)C1)c1nnn(-c2ccc(-c3ccccc3)cc2)c1C1CC1 [Compound 14-56] | 1 to 3
O=C(N[C@H]1CCc2ccccc21)c1nnn(-c2ccc(-c3ccccc3)cc2)c1C1CC1 [Compound 14-57] | 1 to 3
Cc1cc(NC(=O)c2nnn(-c3ccc(-c4ccccc4)cc3)c2C2CC2)ccc1F [Compound 14-58] | 1 to 3
COc1ccc2[nH]cc(CC(C)NC(=O)c3nnn(-c4ccc(-c5ccccc5)cc4)c3C3CC3)c2c1 (stereo not shown) [Compound 14-59] | 1 to 3
O=C(Nc1cncc2[nH]ncc12)c1nnn(-c2ccc(-c3ccccc3)cc2)c1C1CC1 [Compound 14-60] | 1 to 3
Cc1n[nH]c2cccc(NC(=O)c3nnn(-c4ccc(-c5ccccc5)cc4)c3C3CC3)c12 [Compound 14-61] | 1 to 3
COc1cccc(C)c1NC(=O)c1nnn(-c2ccc(-c3ccccc3)cc2)c1C1CC1 [Compound 14-62] | 1 to 3
Cn1ncc2c(NC(=O)c3nnn(-c4ccc(-c5ccccc5)cc4)c3C3CC3)cccc21 [Compound 14-63] | 1 to 3
Cc1c(C(C)NC(=O)c2nnn(-c3ccc(-c4ccccc4)cc3)c2C2CC2)cnn1C (stereo not shown) [Compound 14-64] | 1 to 3
O=C(Nc1cccc2nccn12)c1nnn(-c2ccc(-c3ccccc3)cc2)c1C1CC1 [Compound 14-65] | 1 to 3
Cc1cn2c(NC(=O)c3nnn(-c4ccc(-c5ccccc5)cc4)c3C3CC3)cccc2n1 [Compound 14-66] | 1 to 3
O=C(NCCc1cccs1)c1nnn(-c2ccc(-c3ccccc3)cc2)c1C1CC1 [Compound 14-67] | 1 to 3
O=C(N[C@H]1CCC[C@@H](O)C1)c1nnn(-c2ccc(-c3ccccc3)cc2)c1C1CC1 [Compound 14-68] | 1 to 3
Cn1cc(C2(NC(=O)c3nnn(-c4ccc(-c5ccccc5)cc4)c3C3CC3)CC2)cn1 [Compound 14-69] | 1 to 3
Cn1ncc2c1CCC2NC(=O)c1nnn(-c2ccc(-c3ccccc3)cc2)c1C1CC1 (stereo not shown) [Compound 14-70] | 1 to 3
Cc1c(NC(=O)c2nnn(-c3ccc(-c4ccccc4)cc3)c2C2CC2)nn(C)c1C [Compound 14-71] | > 3
Cn1cc(NC(=O)c2nnn(-c3ccc(-c4ccccc4)cc3)c2C2CC2)cn1 [Compound 14-72] | > 3

Compound | IC50 [µM]
CC(C)n1cc(NC(=O)c2nnn(-c3ccc(-c4ccccc4)cc3)c2C2CC2)cn1 [Compound 14-73] | > 3
CC1(NC(=O)c2nnn(-c3ccc(-c4ccccc4)cc3)c2C2CC2)CCOCC1 [Compound 14-74] | > 3
CC(NC(=O)c1nnn(-c2ccc(-c3ccccc3)cc2)c1C1CC1)c1cnn(C)c1 (stereo not shown) [Compound 14-75] | > 3
CN(Cc1ccc(N2CCOCC2)cc1)C(=O)c1nnn(-c2ccc(-c3ccccc3)cc2)c1C1CC1 [Compound 14-76] | > 3
CS(=O)(=O)Nc1cccc(NC(=O)c2nnn(-c3ccc(-c4ccccc4)cc3)c2C2CC2)c1 [Compound 14-77] | > 3
CCn1cc(NC(=O)c2nnn(-c3ccc(-c4ccccc4)cc3)c2C2CC2)c(C#N)n1 [Compound 14-78] | > 3
Cn1ncc2c(NC(=O)c3nnn(-c4ccc(-c5ccccc5)cc4)c3C3CC3)ncnc21 [Compound 14-79] | > 3
O=C(Nc1cnn(C(F)(F)F)c1)c1nnn(-c2ccc(-c3ccccc3)cc2)c1C1CC1 [Compound 14-80] | > 3
CC(C)C(NC(=O)c1nnn(-c2ccc(-c3ccccc3)cc2)c1C1CC1)c1cn[nH]c1 (stereo not shown) [Compound 14-81] | > 3
O=C(N[C@H]1CCC[C@@H]1O)c1nnn(-c2ccc(-c3ccccc3)cc2)c1C1CC1 [Compound 14-82] | > 3
COCC1(NC(=O)c2nnn(-c3ccc(-c4ccccc4)cc3)c2C2CC2)CCCC1 [Compound 14-83] | > 3
COc1cc(NC(=O)c2nnn(-c3ccc(-c4ccccc4)cc3)c2C2CC2)c2cn[nH]c2c1 [Compound 14-84] | > 3
Cn1cc(C(C)(C)NC(=O)c2nnn(-c3ccc(-c4ccccc4)cc3)c2C2CC2)cn1 [Compound 14-85] | > 3
C[C@H](NC(=O)c1nnn(-c2ccc(-c3ccccc3)cc2)c1C1CC1)c1ccccc1 [Compound 14-86] | > 3
O=C(Nc1cnn(C2CC2)c1)c1nnn(-c2ccc(-c3ccccc3)cc2)c1C1CC1 [Compound 14-87] | > 3
CC(=O)c1cc(NC(=O)c2nnn(-c3ccc(-c4ccccc4)cc3)c2C2CC2)ccn1 [Compound 14-88] | 1 to 3
Cc1cc(NC(=O)c2nnn(-c3ccc(-c4ccc(CC#N)cc4)cc3)c2C2CC2)ccn1 [Compound 15-1] | < 0.1
Cc1cc(NC(=O)c2nnn(-c3ccc(-c4ccc(C#N)c(F)c4)cc3)c2C2CC2)ccn1 [Compound 15-2] | 0.1 to 0.5
Cc1ccc(CNC(=O)c2nnn(-c3ccc(-c4ccc(C#N)cc4)cc3)c2C2CC2)cn1 [Compound 15-3] | 0.5 to 1
Cc1nn(C)c(C)c1-c1ccc(-n2nnc(C(=O)NC(C)c3cnn(C)c3)c2C2CC2)cc1 (stereo not shown) [Compound 15-4, 5-cyclopropyl-N-(1-(1-methyl-1H-pyrazol-4-yl)ethyl)-1-(4-(1,3,5-trimethyl-1H-pyrazol-4-yl)phenyl)-1H-1,2,3-triazole-4-carboxamide] | 0.5 to 1
Cn1c(CNC(=O)c2nnn(-c3ccc(-c4ccc(C#N)cc4)cc3)c2C2CC2)nc2ccccc21 [Compound 15-5] | 0.5 to 1
Cn1c(CNC(=O)c2nnn(-c3ccc(-c4ccc(CC#N)cc4)cc3)c2C2CC2)nc2ccccc21 [Compound 15-6] | 1 to 3
CC(NC(=O)c1nnn(-c2ccc(-c3ccc(C#N)c(F)c3)cc2)c1C1CC1)c1ccn(C)n1 (stereo not shown) [Compound 15-7] | 1 to 3

From US20260001871A1, “TRIAZOLE DERIVATIVES AS MODULATORS OF MAS-RELATED G-PROTEIN RECEPTOR D” (ESCIENT PHARMACEUTICALS, INC., priority 2022, published 2026)
